In publication PMC7464559, “Synthesis, Optimization, Antifungal Activity, Selectivity, and CYP51 Binding of New 2-Aryl-3-azolyl-1-indolyl-propan-2-ols” (Pharmaceuticals, 2020):
In brackets after ≈: the same amount, converted by molar mass.

System: C. krusei
Assay: Anti-Candida in vitro assay, C. krusei strains
Format: cell-based
Settings: Pichia kudriavzevii; span over the C. krusei strains tested
Description: Test fungal strains were obtained from the American Type Culture Collection (ATCC) or were clinical isolates from the Laboratory of Parasitology and Medical Mycology, Centre Hospitalier Universitaire (CHU) of Nantes. The strains were maintained on Sabouraud agar slants and were subcultured 24 h before used. The activity of the target compounds 8a–g and 11a–m was determined by the method previously described. Briefly, molecules were diluted in RPMI 1640 medium supplemented with 0.165 M morpholinopropanesulphonic acid (Sigma-Aldrich, Saint-Quentin Fallavier, France), 2% glucose, and antibiotics. Candida suspensions were prepared in RPMI 1640 medium (Sigma-Aldrich, Saint-Quentin Fallavier, France) adjusted to give a final concentration of 10^3 cells/mL, and a 96-well microplate (Nunc, D. Dutscher, Brumath, France) was seeded with 100 µL. Each concentration of molecules (100 µL) to be tested was added (in triplicate) and plates were incubated at 37 °C for 24 h. The cellular viability was evaluated on the Fluorolite 1000 (Dynatech, France) with an excitation at 550 nm and an emission at 590 nm after a 4 h incubation with 10 µL of Alamar Blue®. […] MIC was expressed as the mean of the triplicate values. KTC and FLC were used as standards.

O[C@](Cn1cncn1)(Cn1ccc2ccccc21)c1ccc(Cl)cc1Cl [(−)-(S)-8g]
MIC: 0.039 to 0.167 µg/mL (≈ 0.101 to 0.431 µM)
